# Measurements published in patent US6017957A (priority 1989, dated 2000).
# Like-named read-outs stand apart in the source and are kept apart here.
# Assays:
# NMDA-induced convulsions = NMDA-induced convulsions and death (anticonvulsant activity); assay type: in vivo, male NIH-Swiss mice; details: for ED50: Mus musculus, ip, read-out: ED50, protection against NMDA-induced convulsions and death; for dose-response curve shape: NMDA-induced convulsions; for fold more potent than parent compound (ACPC): anticonvulsant potency in vivo
# Method: (§1) Male (25-30 g) NIH-Swiss mice (Harlan Sprague-Dawley, Frederick, Md.) were group housed in 32 cm×25 cm×15 cm plastic cages (10-15/cage) with food and water freely available. Mice were injected intraperitoneally with the test substance and challenged fifteen minutes later (unless otherwise specified) with NMDA (125 mg/kg), pentylenetetrazole (PTZ) (80mg/kg), strychnine (strych.) hemisulfate (2 mg/kg, as the base), bicuculline (bicuc.) (6 mg/kg) or maximal electroshock (MES). NMDA, PTZ, and strych. hemisulfate were dissolved in distilled water. Bicuculline was dissolved in 0.01 N HC1. These compounds were injected in a volume of 0.1 ml 1-aminocyclopropanecarboxylates were dissolved in distilled water and doses ≤500 mg/kg injected in a volume of 0.1 ml; doses >500 mg/kg were injected in proportionately larger volumes. Immediately after convulsant challenge, mice were placed in 28.5 cm×17.8 cm×12 cm plastic cages (1/cage) and observed for 15 minutes. The presence or absence of convulsions and the time to the first convulsive episode (latency) were noted. MES were produced by applying a 50 mA current through alligator clips attached to the pinnae for 0.2 s.
# [1] = tested on: pentylenetetrazole (PTZ)-induced convulsions; assay: PTZ-induced convulsions; assay type: in vivo, male NIH-Swiss mice
# Method: as §1
# [2] = tested on: bicuculline-induced convulsions; assay type: in vivo, male NIH-Swiss mice
# Method: as §1
# [3] = tested on: strychnine-induced convulsions; assay type: in vivo, male NIH-Swiss mice
# Method: as §1
# [4] = tested on: maximal electroshock seizures; assay: Maximal electroshock seizures (MES); assay type: in vivo, male NIH-Swiss mice; details: for effect on MES: ACPC 200-2000, ACPCM 114-571 mg/kg
# Method: as §1
# [5] = tested on: motor performance (rotarod); assay: Motor performance, rotarod; assay type: in vivo, NIH-Swiss mice; details: for impairment of performance in rotarod test: ACPC 100-2000, ACPCM 19-571 mg/kg, MK-801 1 mg/kg, thirty minutes; for % Impairment, Rotarod: i.p., ACPC 400-2000, ACPCM 114-571, MK-801 1 mg/kg
# Excerpt: (§2) Evaluation of motor performance:
# [6] = tested on: motor performance (horizontal wire); assay: Motor performance, horizontal (hanging) wire test; assay type: in vivo, NIH-Swiss mice; details: for impairment of performance in hanging (horizontal) wire test: ACPC 100-2000, ACPCM 19-571 mg/kg, MK-801 1 mg/kg, thirty minutes; for % Impairment, Hanging Wire: i.p., ACPC 400-2000, ACPCM 114-571, MK-801 1 mg/kg
# Excerpt: as §2
# [7] = target: T1, strychnine-insensitive glycine receptors (NMDA receptor complex) (Rattus norvegicus, UniProt P35439); details: cited from earlier work
# T1 construct: Synaptic membranes were prepared from forebrains of adult; from tissue; host or cells: forebrain (whole brain minus cerebellum and brainstem) synaptic membranes of adult male Sprague-Dawley rats
# NMDA receptor complex = details: compared with glycine; Marvizon et al, 1989; cited from earlier work
# [8] = tested on: NMDA-gated cation channels; details: Nadler et al, 1988; cited from earlier work
# [9] = tested on: strychnine insensitive glycine binding site of the N-methyl-D-aspartate (NMDA) receptor complex; details: Marvizon, 1989; cited from earlier work
# Overt behavioral effects = details: for overt behavioral effects: ACPC 100-2000, ACPCE 39-195, ACPCM 19-571 mg/kg
# [10] = target: T1, strychnine-insensitive glycine receptors (NMDA receptor complex); assay: Inhibition of [^3 H]glycine binding; assay type: male Sprague-Dawley rats (forebrain synaptic membranes); details: rat forebrain synaptic membranes, 0-4°, 60 min
# Method: Membrane preparation: Synaptic membranes were prepared from forebrains of adult (250-350 g) male Sprague-Dawley rats (Taconic Farms, Germantown, N.Y.) by modification of the method of Bristow et al, (1986). In brief, forebrains (whole brain minus cerebellum and brainstem) were weighed and then disrupted for 30 s (Ultra-Turrax, Model STD) in 10 volumes of 0.32 M sucrose containing 5 mM HEPES/4.5 mM Tris pH 7.4. The homogenate was diluted to 50 volumes with this buffer and centrifuged for 10 minutes (1000×g). […]
# [^3 H]Glycine binding: Immediately prior to assay, aliquots were thawed at 0-40 and "washed" 3 more times as described above. Membranes (0.1-0.3 mg prot.) were incubated for 60 minutes at 0-4° in HEPES-Tris buffer containing 1 mM MgCl2, ([^3 H]glycine (20 Ci/mmol, ISN, Irvine, Calif.), and drugs as indicated. Nonspecific binding was defined using 1 mM glycine. Incubations (1 ml) were terminated by centrifugation (Eppendorf Model 5414 Microfuge, 5 minutes) and the pellets washed superficially with 1 ml of assay buffer. The pellets were solubilized with 0.5 ml of NCS (Amersham, Arlington Heights, Ill.), agitated for 45 minutes, and 0.05 ml of glacial acetic acid added. Four ml of OCS (Amersham) was added and the radioactivity measured in a Beckman LS 5801 liquid scintillation counter.
# [11] = tested on: pentylenetetrazole (PTZ)-induced convulsions; details: MK-801; Clineschmidt et al, 1982a; cited from earlier work
# [12] = tested on: strychnine-induced convulsions; details: MK-801; Clineschmidt et al, 1982a; cited from earlier work
# [13] = tested on: bicuculline-induced convulsions; details: MK-801; Clineschmidt et al, 1982a; cited from earlier work
# [14] = tested on: [^3 H]glycine binding (NMDA receptor complex); details: MK-801 10 μM; Marvizon and Skolnick, 1988; cited from earlier work
# [15] = i.p., 15 min before NMDA 125 mg/kg, ACPC 100-500, ACPCE 39-195, ACPCM 19-190 mg/kg
# [16] = ACPC 200-2000, ACPCM 114-571 mg/kg i.p.
# [17] = NMDA 125 mg/kg, vehicle injected mice
compound,measurement,setting,value
"NC1(C(=O)O)CC1 [ACPC, 1-aminocyclopropanecarboxylic acid]",anticonvulsant effect still manifest after (duration),NMDA-induced convulsions; ACPC 400 mg/kg,30 min
same,maximum protection against NMDA-induced convulsions,NMDA-induced convulsions; ACPC 400 mg/kg,85%
same,"protection against NMDA-induced convulsions and death (efficacy, time)","NMDA-induced convulsions; ACPC 400 mg/kg, 15 minutes prior to NMDA",most efficacious
same,ED50,NMDA-induced convulsions,234 mg/kg
same,dose-response curve shape,NMDA-induced convulsions,"""bell-shaped"" dose-response curve"
same,Complete protection against NMDA-induced convulsions,NMDA-induced convulsions; i.p.,inability of ACPC to completely block NMDA-induced convulsions
same,Effect on convulsions induced by NMDA (125),NMDA-induced convulsions; [15],+
same,latency to convulsions induced by PTZ,[1]; ACPC 400 mg/kg,not significantly altered
same,protection against PTZ-induced convulsions,[1]; ACPC 400 mg/kg,did not afford significant protection
same,Effect on convulsions induced by PTZ (80),"[1]; ACPC 400 mg/kg i.p., PTZ 80 mg/kg",-
same,latency to convulsions induced by bicuc.,[2]; ACPC 400 mg/kg,not significantly altered
same,protection against bicuc.-induced convulsions,[2]; ACPC 400 mg/kg,did not afford significant protection
same,Effect on convulsions induced by BICUC. (6),"[2]; ACPC 400 mg/kg i.p., bicuculline 6 mg/kg",-
same,latency to convulsions induced by strych.,[3]; ACPC 400 mg/kg,not significantly altered
same,protection against strych.-induced convulsions,[3]; ACPC 400 mg/kg,did not afford significant protection
same,Effect on convulsions induced by STRYCH. (2),"[3]; ACPC 400 mg/kg i.p., strychnine 2 mg/kg",-
same,effect on MES,[4],"Neither ACPC (200-2000 mg/kg) nor ACPCM (114-571 mg/kg) had a significant, dose-dependent effect"
same,Effect on convulsions induced by MES,[4]; [16],-
same,impairment of performance in rotarod test,[5],no impairment
same,"% Impairment, Rotarod",[5],0%
same,impairment of performance in hanging (horizontal) wire test,[6],no impairment
same,"% Impairment, Hanging Wire",[6],0%
same,IC50,"[7]; ACPC, Marvizon et al, 1989, read-out: Inhibition of [^3 H] glycine binding IC50",38 ± 7 nM
same,inhibition of strychnine-insensitive [^3 H]glycine binding (type),"[7]; Marvizon et al, 1989","potent, competitive inhibitor"
same,Ki,"[7]; Marvizon et al, 1989, read-out: affinity K1 for strychnine-insensitive glycine receptors in vitro",32 nM
same,enhancement of [3H]MK-801 binding,NMDA receptor complex,enhances [3H]MK-801 binding to this supramolecular complex with a lower efficacy than glycine
same,enhancement of [^3 H]TCP binding,[8],enhances [^3 H]TCP binding
same,partial agonism at strychnine insensitive glycine binding site,[9],potent and selective partial agonist
same,overt behavioral effects,Overt behavioral effects,No overt behavioral effects
same,overt behavioral effects or neurotoxicity,"Overt behavioral effects; mouse, in vivo",lack of overt behavioral effects or neuro-toxicity
same,therapeutic index versus competitive or non-competitive NMDA receptor antagonists,"Overt behavioral effects; mouse, in vivo",greater therapeutic index
"COC(=O)C1(N)CC1 [ACPCM, methyl 1-aminocyclopropanecarboxylate]",maximum efficacy apparent after injection (time),NMDA-induced convulsions; ACPCM 114 mg/kg,5 to 15 min
same,onset and duration of anticonvulsant action relative to ACPC,NMDA-induced convulsions; ACPCM 114 mg/kg,manifest more rapidly than ACPC but of shorter duration
same,ED50,NMDA-induced convulsions,46 mg/kg
same,dose-response curve shape,NMDA-induced convulsions,"""bell-shaped"" dose response curve"
same,fold more potent than parent compound (ACPC),NMDA-induced convulsions,~ 5 fold
same,Complete protection against NMDA-induced convulsions,NMDA-induced convulsions; i.p.,neither ester could completely block NMDA-induced convulsions and deaths
same,Effect on convulsions induced by NMDA (125),NMDA-induced convulsions; [15],+
same,effect on MES,[4],"Neither ACPC (200-2000 mg/kg) nor ACPCM (114-571 mg/kg) had a significant, dose-dependent effect"
same,Effect on convulsions induced by MES,[4]; [16],-
same,impairment of performance in rotarod test,[5],no impairment
same,"% Impairment, Rotarod",[5],0%
same,impairment of performance in hanging (horizontal) wire test,[6],no impairment
same,"% Impairment, Hanging Wire",[6],0%
same,IC50,[10],> 40000 nM
same,overt behavioral effects,Overt behavioral effects,No overt behavioral effects
same,overt behavioral effects or neurotoxicity,"Overt behavioral effects; mouse, in vivo",no overt behavioral effects or neurotoxicity were observed
"C[C@]12N[C@H](Cc3ccccc31)c1ccccc12 [MK-801, (+)-5-Methyl-10,11-dihydro-5H-dibenzo [a,d]cyclo-hepten-5,10-imine, reference compound]",Effect on convulsions induced by NMDA (125),"NMDA-induced convulsions; MK-801 1 mg/kg i.p., positive control, superscript 3",+
same,protection against NMDA-induced lethality,"NMDA-induced convulsions; MK-801 1 mg/kg, thirty minutes following administration",complete protection
same,Effect on convulsions induced by MES,"[4]; MK-801 1 mg/kg i.p., superscripts 1,3",+
same,"abolished hindclimb tonic extensor component of MES, % of mice","[4]; MK-801 1 mg/kg, thirty minutes before MES",87%
same,impairment of performance in rotarod test,[5],complete impairment
same,"% Impairment, Rotarod",[5],100%
same,impairment of performance in hanging (horizontal) wire test,[6],complete impairment
same,"% Impairment, Hanging Wire",[6],100%
same,Effect on convulsions induced by PTZ (80),[11],+
same,Effect on convulsions induced by STRYCH. (2),[12],-
same,Effect on convulsions induced by BICUC. (6),[13],+
same,"Inhibition of [^3 H] glycine binding, mode","[7]; MK-801, Marvizon and Skolnick, 1988",noncom-
same,inhibition of activation of [^3 H]glycine binding by Mg^+2,[14],non-competitively inhibits
same,hyperactivity,"Overt behavioral effects; MK-801 1 mg/kg, thirty minutes after administration",profound hyperactivity
"O=C1C[C@@H]2OCC=C3CN4CC[C@]56c7ccccc7N1[C@H]5[C@H]2[C@H]3C[C@H]46 [strychnine, reference compound]","convulsions, % of mice",[3]; strychnine 2 mg/kg,100%
same,latency to convulsions,[3]; strychnine 2 mg/kg,3.1 ± 0.4 min
"CCOC(=O)C1(N)CC1 [ACPCE, ethyl l-aminocyclopropanecarboxylate]",ED50,NMDA-induced convulsions,100 mg/kg
same,dose-response curve shape,NMDA-induced convulsions,"""bell-shaped"" dose response curve"
same,fold more potent than parent compound (ACPC),NMDA-induced convulsions,~ 2.3 fold
same,Complete protection against NMDA-induced convulsions,NMDA-induced convulsions; i.p.,neither ester could completely block NMDA-induced convulsions and deaths
same,Effect on convulsions induced by NMDA (125),NMDA-induced convulsions; [15],+
same,IC50,[10],> 40000 nM
same,overt behavioral effects,Overt behavioral effects,No overt behavioral effects
same,overt behavioral effects or neurotoxicity,"Overt behavioral effects; mouse, in vivo",no overt behavioral effects or neurotoxicity were observed
"C1CCc2nnnn2CC1 [pentylenetetrazole, reference compound]","convulsions, % of mice",[1]; PTZ 80 mg/kg,100%
same,latency to convulsions,[1]; PTZ 80 mg/kg,1.4 ± 0.2 min
"CN1CCc2cc3c(cc2[C@H]1[C@@H]1OC(=O)c2c1ccc1c2OCO1)OCO3 [bicuculline, reference compound]","convulsions, % of mice",[2]; bicuculline 6 mg/kg,100%
same,latency to convulsions,[2]; bicuculline 6 mg/kg,2.1 ± 0.3 min
"CN[C@H](CC(=O)O)C(=O)O [NMDA, N-methyl-D-aspartate, reference compound]","convulsions and death, mice affected",NMDA-induced convulsions; [17],all
same,latency to convulsions,NMDA-induced convulsions; [17],4.6 ± 0.4 min
